The results in this text go back to patent US4406879A, “Phthalazinol preparation” (Nippon Kayaku Kabushiki Kaisha, priority 1979, dated 1983).

≈ marks a conversion by molar mass, not a printed value.

Series [1] can be described thus: Water-solubility and wettability of Phthalazinol. In kind it is physicochemical.
The nature of series [2]: Oral absorption and blood content of Phthalazinol (first pass effect). In kind it is in vivo.
In series [3] the test system is alcohol dehydrogenase. The series can be described thus: Metabolism of Phthalazinol with alcohol dehydrogenase in the living body. In kind it is in vivo. The following applies: before it arrives at the blood circulation system.

Turning to `CCOC(=O)c1c(C)cc2c(CO)n[nH]c(=O)c2c1C` [Phthalazinol, 6,8-Dimethyl-7-ethoxycarbonyl-4-hydroxymethyl-1-phthalazone], the wettability with water result in series [1] was “low wettability”. Also, the solubility (commonly the dissolved amount per volume that the medium holds) in series [1] (water at 25° C.) was roughly 200 µg/mL (≈ 724 µM). Further, the absorption velocity result in series [2] (Phthalazinol subjected to the tests at present) was “low absorption velocity”. Further, in series [2] (in vivo, po, administered orally), the Fa is roughly 100%. Also, the “actual Phthalazinol content of the blood relative to the theoretical value” in series [2] (theoretical value assumes no metabolism and complete absorption) is “several tenths”. Further, the “metabolism (4-hydroxymethyl converted into inactive 4-carboxyl group)” value in series [3] was “readily metabolized”.
